Columns and labels:
[1] = Formation of 1,5-cz-[Ln(Lig)] from Lig and Ln^III ions (metal dependent click-zip), MOPS/NaOH buffer pH 7.0, analytical HPLC (Charts 1, 2); settings: MOPS/NaOH buffer pH 7.0
[2] = Formation of 1,5-cz-[M(Lig)] from Lig and M^III ions (metal dependent click-zip) (Charts 4, 5); format: physicochemical; settings: MOPS/NaOH buffer pH 7.0, TD728, TD827 in 50% i-PrOH; for conversion to 1,5-cz-[M(Lig)], Y^III: TD714 sum of two diastereoisomers

C#Cc1cccc(CN2CCN(CC(=O)O)CCN(Cc3cc(C(F)(F)F)cc(CN=[N+]=[N-])n3)CCN(CC(=O)O)CC2)n1 [TD1063]
conversion to 1,5-cz-[Ln(Lig)], Ce^III ([1]; after 1 week at 80° C.): 1%
conversion to 1,5-cz-[Ln(Lig)], Ce^III ([1]; after 1 hour at 80° C.): 1%
conversion to 1,5-cz-[Ln(Lig)], Dy^III ([1]; after 1 week at 80° C.): 86%
conversion to 1,5-cz-[Ln(Lig)], Dy^III ([1]; after 1 hour at 80° C.): 15%
conversion to 1,5-cz-[Ln(Lig)], Er^III ([1]; after 1 week at 80° C.): 93%
conversion to 1,5-cz-[Ln(Lig)], Er^III ([1]; after 1 hour at 80° C.): 33%
conversion to 1,5-cz-[Ln(Lig)], Eu^III ([1]; after 1 week at 80° C.): 73%
conversion to 1,5-cz-[Ln(Lig)], Eu^III ([1]; after 1 hour at 80° C.): 4%
conversion to 1,5-cz-[Ln(Lig)], Gd^III ([1]; after 1 week at 80° C.): 74%
conversion to 1,5-cz-[Ln(Lig)], Gd^III ([1]; after 1 hour at 80° C.): 5%
conversion to 1,5-cz-[Ln(Lig)], Ho^III ([1]; after 1 week at 80° C.): 90%
conversion to 1,5-cz-[Ln(Lig)], Ho^III ([1]; after 1 hour at 80° C.): 22%
conversion to 1,5-cz-[Ln(Lig)], La^III ([1]; after 1 week at 80° C.): 5%
conversion to 1,5-cz-[Ln(Lig)], La^III ([1]; after 1 hour at 80° C.): 0%
conversion to 1,5-cz-[Ln(Lig)], Lu^III ([1]; after 1 week at 80° C.): 95%
conversion to 1,5-cz-[Ln(Lig)], Lu^III ([1]; after 1 hour at 80° C.): 54%
conversion to 1,5-cz-[Ln(Lig)], Nd^III ([1]; after 1 week at 80° C.): 52%
conversion to 1,5-cz-[Ln(Lig)], Nd^III ([1]; after 1 hour at 80° C.): 2%
conversion to 1,5-cz-[Ln(Lig)], Pr^III ([1]; after 1 week at 80° C.): 35%
conversion to 1,5-cz-[Ln(Lig)], Pr^III ([1]; after 1 hour at 80° C.): 1%
conversion to 1,5-cz-[Ln(Lig)], Sm^III ([1]; after 1 week at 80° C.): 57%
conversion to 1,5-cz-[Ln(Lig)], Sm^III ([1]; after 1 hour at 80° C.): 3%
conversion to 1,5-cz-[Ln(Lig)], Tb^III ([1]; after 1 week at 80° C.): 83%
conversion to 1,5-cz-[Ln(Lig)], Tb^III ([1]; after 1 hour at 80° C.): 10%
conversion to 1,5-cz-[Ln(Lig)], Tm^III ([1]; after 1 week at 80° C.): 93%
conversion to 1,5-cz-[Ln(Lig)], Tm^III ([1]; after 1 hour at 80° C.): 45%
conversion to 1,5-cz-[Ln(Lig)], Yb^III ([1]; after 1 week at 80° C.): 95%
conversion to 1,5-cz-[Ln(Lig)], Yb^III ([1]; after 1 hour at 80° C.): 53%
conversion to 1,5-cz-[M(Lig)], Sc^III ([2]; 1 week at 80° C.): 8%
conversion to 1,5-cz-[M(Lig)], Y^III ([2]; 1 week at 80° C.): 91%
conversion to 1,5-cz-[M(Lig)], Sc^III ([2]; 1 hour at 80° C.): 1%
conversion to 1,5-cz-[M(Lig)], Y^III ([2]; 1 hour at 80° C.): 20%

Source: US20250147039A1, “Compounds for complexation of rare earth elements and/or s-, p-, d- block metals, their coordination compounds, peptide conjugates, method of their preparation and use thereof” (USTAV ORGANICKE CHEMIE A BIOCHEMIE AV CR V.V.I., priority 2021, published 2025)
